For 15 compounds, IC50 results are on record in patent US11597706B2, “Compounds and compositions for treating conditions associated with NLRP activity” (Novartis AG, priority 2016, dated 2023).

The structures appear in SMILES notation.

T1 sequence (Q96P20 whole entry): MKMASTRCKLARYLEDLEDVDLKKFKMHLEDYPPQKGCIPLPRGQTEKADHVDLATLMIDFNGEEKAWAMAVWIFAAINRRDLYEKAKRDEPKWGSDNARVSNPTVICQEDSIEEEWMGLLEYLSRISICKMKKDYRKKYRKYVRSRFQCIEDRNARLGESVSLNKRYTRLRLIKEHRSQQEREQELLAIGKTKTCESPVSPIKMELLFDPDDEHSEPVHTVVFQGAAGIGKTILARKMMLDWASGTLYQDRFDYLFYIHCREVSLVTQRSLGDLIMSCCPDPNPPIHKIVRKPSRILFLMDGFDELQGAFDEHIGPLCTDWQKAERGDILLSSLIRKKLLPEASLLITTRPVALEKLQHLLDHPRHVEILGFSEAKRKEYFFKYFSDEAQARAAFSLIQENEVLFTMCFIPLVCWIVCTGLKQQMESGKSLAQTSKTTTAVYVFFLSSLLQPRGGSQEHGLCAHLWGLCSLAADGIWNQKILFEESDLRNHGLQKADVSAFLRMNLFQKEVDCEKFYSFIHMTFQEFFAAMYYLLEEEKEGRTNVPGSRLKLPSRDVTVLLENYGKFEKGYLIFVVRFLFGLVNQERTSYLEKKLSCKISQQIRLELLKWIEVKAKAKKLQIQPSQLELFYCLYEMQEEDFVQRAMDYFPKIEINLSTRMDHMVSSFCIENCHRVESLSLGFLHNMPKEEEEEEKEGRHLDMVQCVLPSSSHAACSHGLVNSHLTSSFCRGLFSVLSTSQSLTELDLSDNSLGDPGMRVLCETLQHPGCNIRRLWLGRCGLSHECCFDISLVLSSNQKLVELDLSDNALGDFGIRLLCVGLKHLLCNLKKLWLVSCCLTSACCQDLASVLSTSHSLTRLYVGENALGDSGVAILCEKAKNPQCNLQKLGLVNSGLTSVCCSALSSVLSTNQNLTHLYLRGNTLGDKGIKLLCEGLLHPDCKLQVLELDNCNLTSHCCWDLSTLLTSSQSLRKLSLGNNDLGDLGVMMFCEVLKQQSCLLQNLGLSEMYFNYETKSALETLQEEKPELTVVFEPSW

This assay has as its target T1, hNLRP3 (THP-1, IL-1β) (Homo sapiens, UniProt Q96P20).
T1 construct: THP-1 cells were purchased from the American Type Culture Collection; host or cells: THP-1 cells, PMA-differentiated, stimulated with gramicidin
The assay is described as follows: IL-1β production in PMA-differentiated THP-1 cells stimulated with gramicidin. The format is cell-based. The note with it: Table 2, gramicidin 5 μM, IL-1β readout. How it is done:
IL-1β Production in PMA-Differentiated THP-1 Cells Stimulated With Gramicidin.
Cell culture-THP-1 cells were purchased from the American Type Culture Collection and sub-cultured according to instructions from the supplier. Prior to experiments, cells were cultured in RPMI 1640 containing 10% heat inactivated FBS, penicillin (100 units/ml) and streptomycin (100 μg/ml), and maintained in log phase prior to experimental setup. Prior to the experiment THP-1 were treated with PMA (Phorbol 12-myristate 13-acetate) (10 μg/ml) for 24 hours. The day of the experiment the media was removed and attaching cells were treated with trypsin for 2 minutes, cells were then collected, washed with PBS (phosphate buffer saline), spin down, resuspended in 2% heat inactivated FBS with RPMI at a concentration of 1×10^6 cells/ml, and 100 μl was plated in a 96 well plate. Cells were incubated with compounds for 1 hours and then stimulated with Gramicidin (5 μM) (Enzo) for 2 hours. Cell free supernatant was collected and the production of IL-1β was evaluated by ELISA. Compounds were dissolved in dimethyl sulfoxide (DMSO) and added to the culture medium to achieve desired concentration (e.g. 100, 30, 10, 3, 1, 0.3 or 0.1 μM). A vehicle only control was run concurrently with each experiment. Final DMSO concentration was 1%.
THP-1 cells were purchased from the American Type Culture Collection and sub-cultured according to instructions from the supplier. Prior to experiments, cells were cultured in complete RPMI 1640 (containing 10% heat inactivated FBS, penicillin (100 units/ml) and streptomycin (100 μg/ml)), and maintained in log phase prior to experimental setup. Prior to the experiment THP-1 were treated with PMA (Phorbol 12-myristate 13-acetate) (20 ng/ml) for 16-18 hours. On the day of the experiment the media was removed and adherent cells were detached with trypsin for 5 minutes. Cells were then harvested, washed with complete RPMI 1640, spun down, resuspended in RPMI 1640 (containing 2% heat inactivated FBS, penicillin (100 units/ml) and streptomycin (100 μg/ml). The cells were plated in a 384-well plate at a density of 50,000 cells/well (final assay volume 50 μl). Compounds were dissolved in dimethyl sulfoxide (DMSO) and added to the culture medium to achieve desired concentration (e.g. 100, 33, 11, 3.7, 1.2, 0.41, 0.14, 0.046, 0.015, 0.0051, 0.0017 μM). Cells were incubated with compounds for 1 hour and then stimulated with gramicidin (5 μM) (Enzo) for 2 hours. Cell free supernatant was collected and the production of IL-1β was evaluated by HTRF (cisbio). A vehicle only control was run concurrently with each experiment. Final DMSO concentration was 0.38%.
In general, IC50 refers to the concentration at which inhibition is half-maximal. A high value points to a need for much substance. As for `CC(C)c1ccc(F)c(C(C)C)c1NC(=O)NS(=O)(=O)c1cc(N2CCOCC2)cc(C(C)(C)O)c1` [Compound 157, N-(3-fluoro-2,6-diisopropylphenylcarbamoyl)-3-(2-hydroxypropan-2-yl)-5-morpholinobenzenesulfonamide], the IC50 was in the range of 1000 to 5000 nM. `COC(=O)c1cc(C(C)C)c(NC(=O)NS(=O)(=O)c2cccc(C(C)(C)O)c2)c(C(C)C)c1` [Compound 158, methyl 4-(3-(3-(2-hydroxypropan-2-yl)phenylsulfonyl)ureido)-3,5-diisopropylbenzoate]: the IC50 lay in the range of 5000 to 15000 nM. Consider `CC(C)c1ccc(F)c(C(C)C)c1NC(=O)NS(=O)(=O)c1cc(-c2ccncc2)cc(C(C)(C)O)c1` [Compound 159, N-(3-fluoro-2,6-diisopropylphenylcarbamoyl)-3-(2-hydroxypropan-2-yl)-5-(pyridin-4-yl)benzenesulfonamide], for which the IC50 is 5000 to 15000 nM.

On to `CC(C)(O)c1ccc(S(=O)(=O)NC(=O)Nc2c3c(c(F)c4c2CCC4)CCC3)cc1` [Compound 160, N-(8-fluoro-1,2,3,5,6,7-hexahydro-sindacen-4-ylcarbamoyl)-4-(2-hydroxypropan-2-yl)benzenesulfonamide], for which the IC50 is below 1000 nM. With `CC(C)(O)c1ccc(S(=O)(=O)NC(=O)Nc2c3c(c(Cl)c4c2CCC4)CCC3)cc1` [Compound 161, N-(8-chloro-1,2,3,5,6,7-hexahydro-sindacen-4-ylcarbamoyl)-4-(2-hydroxypropan-2-yl)benzenesulfonamide], the IC50 is below 1000 nM.

Consider `CC(C)c1cc(Cl)cc(C(C)C)c1NC(=O)NS(=O)(=O)c1ccc(C(C)(C)O)cc1` [Compound 162, N-(4-chloro-2,6-diisopropylphenylcarbamoyl)-4-(2-hydroxypropan-2-yl)benzenesulfonamide], for which the IC50 is below 1000 nM. `CC(C)(O)c1ccc(S(=O)(=O)NC(=O)Nc2c3c(cc4c2CCC4)CCC3)cc1CO` [Compound 163, N-(1,2,3,5,6,7-hexahydro-sindacen-4-ylcarbamoyl)-3-(hydroxymethyl)-4-(2-hydroxypropan-2-yl)benzenesulfonamide] gave a concentration for half-maximal inhibition (IC50) below 1000 nM. For `CC(C)(O)c1ccc(S(=O)(=O)NC(=O)Nc2c3c(c(C#N)c4c2CCC4)CCC3)cc1` [Compound 164, N-(8-cyano-1,2,3,5,6,7-hexahydro-sindacen-4-ylcarbamoyl)-4-(2-hydroxypropan-2-yl)benzenesulfonamide], the IC50 was below 1000 nM. Compound `CC(C)c1cc(F)cc(C(C)C)c1NC(=O)NS(=O)(=O)c1ccc(C(C)(C)O)cc1` [Compound 165, N-(4-fluoro-2,6-diisopropylphenylcarbamoyl)-4-(2-hydroxypropan-2-yl)benzenesulfonamide] had an IC50 below 1000 nM. As for `CC(C)(O)c1ccc(S(=O)(=O)NC(=O)Nc2c3c(cc4c2CCC4)CCC3)cn1` [Compound 166, N-(1,2,3,5,6,7-hexahydros-indacen-4-ylcarbamoyl)-6-(2-hydroxypropan-2-yl)pyridine-3-sulfonamide], the IC50 was below 1000 nM. Take `CC(C)(O)c1ccc(S(=O)(=O)NC(=O)Nc2c3c(cc4c2CCC4)CCC3)cc1` [Compound 167, N-(1,2,3,5,6,7-hexahydros-indacen-4-ylcarbamoyl)-4-(2-hydroxypropan-2-yl)benzenesulfonamide]: the IC50 is below 1000 nM. As for `CC(C)c1cc(C#N)cc(C(C)C)c1NC(=O)NS(=O)(=O)c1ccc(C(C)(C)O)cc1` [Compound 168, N-(4-cyano-2,6-diisopropylphenylcarbamoyl)-4-(2-hydroxypropan-2-yl)benzenesulfonamide], the half-inhibitory concentration (IC50) lay in the range of 1000 to 5000 nM.

`CC(C)c1cccc(C(C)C)c1NC(=O)NS(=O)(=O)c1ccc(C(C)(C)O)cc1` [Compound 169, N-(2,6-diisopropylphenylcarbamoyl)-4-(2-hydroxypropan-2-yl)benzenesulfonamide] returned a half-inhibitory concentration (IC50) of 1000 to 5000 nM. `CC(C)c1ccc(F)c(C(C)C)c1NC(=O)NS(=O)(=O)c1ccc(C(C)(C)O)cc1` [Compound 170, N-(3-fluoro-2,6-diisopropylphenylcarbamoyl)-4-(2-hydroxypropan-2-yl)benzenesulfonamide] yielded an IC50 of 1000 to 5000 nM. On to `COC(=O)c1ccc(F)c(S(=O)(=O)NC(=O)Nc2c(C(C)C)cc(Cl)cc2C(C)C)c1` [Compound 171, methyl 3-(N-(4-chloro-2,6-diisopropylphenylcarbamoyl)sulfamoyl)-4-fluorobenzoate], for which the IC50 was 1000 to 5000 nM.
